Experiments:
[1] = system: T cell receptor-mediated T cell activation; test: T cell receptor-mediated T cell activation (anti-CD3ε mab Leu 4) of PBMC, 3H-thymidine, CD44 peptides; type: cell-based, human
Procedure: Synthetic peptides were prepared by FMoc or TBoc chemistry, purified usin
HPLC, and resuspended in RPMI media prior to addition to 4 day in vitro
cultures. Following 4 days in culture, 3Hthymidine was added, and
following an incubation of 4 hours, the cultures were harvested using an
automated multiwell harvester using standard techiques.

[2] = system: CD2-Mediated T Cell Activation; test: T Cell Activation Assay: proliferation of PBMC stimulated with CD2 mabs 35.1 and 9-1; type: cell-based, human; details: soluble, free protein instead of liposomes, data not shown
Procedure: CD44 Liposomes. Liposomes were prepared by the method of Mimms et al. ((1981) Biochemistry 20:833-840), using 1 μM purified CD44 or control glycophorin protein, 1 nM L-α-dioleoyl lecthin (Avanti Polar Lipids, Birmingham, Ala.), and 240 nM OG. Liposomes were analyzed for content of the appropriate protein using a novel labelling technique and flow cytometry. Liposomes were incubated with 5-(N-octadecanoyl) aminofluorescein (Molecular Probes, Eugene, Oreg.) in PBS×10 min at room temperature. Fluoresceinated liposomes were then reacted with […] magnetic beads (Dynabeads M-450 Goat anti-Mouse IgG, Dynal Inc., Great Neck, N.Y.) coated with CD44 (A3D8) or anti-glycophorin (E3,E4,E5) mAbs. After 45 minutes (4° C.), with continuous end-over-end rotation, beads were washed ×3 in PBS using a magnet to immobilize the beads during PBS changes. Fluoresceinated liposome-bead conjugates were then analyzed by flow cytometry.
T Cell Activation Assay. PBMC from healthy donors were stimulated with optimal mitogenic concentration of CD2 mabs 35.1 and 9-1 as described (Denning et al.). Where indicated, CD44 or control glycophorin liposomes (final protein range used was 28-140 nM) were added to these cultures 20 min prior to addition of CD2 mabs. […]

Substance	effect on T cell activation (in words) ([1]; 1 mg/ml peptide, anti-CD3 triggered PBMC cultures)	% Inhibition ([1]; peptide 1 mg/ml, Leu 4 1:1000, 4 day culture) [%]	Δ CPM 3H-Thymidine/106 Cells in Culture ([1]; peptide 1 mg/ml, Leu 4 1:1000, 4 day culture, control 199,816)	effect on CD2 stimulated PBMC culture [2]
(C)NRNDVTGGRRDPNHSEGS (CNRNDVTGGRRDPNHSEGS; N-terminal Cys) [CD44-19A]	inhibition of T cell activation	75	50,318 Δ CPM 3H-Thymidine/106 Cells	
soluble, free CD44 protein: CD44 protein affinity-purified on A3D8-Sepharose from HuT 78 T cell lysate, single band at 80-85 kD				Identical results
